Experimental data taken from paper PMC7587962, “Evaluation of Cytotoxicity and α-Glucosidase Inhibitory Activity of Amide and Polyamino-Derivatives of Lupane Triterpenoids” (Molecules, 2020).

Tests used:
K-562 = test: NCI-60 SRB screen: leukemia K-562; assay type: cell-based, human; conditions: K-562
RPMI-8226 = test: NCI-60 SRB screen: leukemia RPMI-8226; assay type: cell-based; conditions: Homo sapiens, 48 h, RPMI-8226
HOP-62 = test: NCI-60 SRB screen: non-small cell lung cancer HOP-62; assay type: cell-based, human; conditions: HOP-62
NCI-H226 = test: NCI-60 SRB screen: non-small cell lung cancer NCI-H226; assay type: cell-based, human; conditions: NCI-H226
NCI-H522 = test: NCI-60 SRB screen: non-small cell lung cancer NCI-H522; assay type: cell-based, human; conditions: NCI-H522
COLO 205 = test: NCI-60 SRB screen: colon cancer COLO 205; assay type: cell-based, human; conditions: COLO 205
HCC-2998 = test: NCI-60 SRB screen: colon cancer HCC-2998; assay type: cell-based, human; conditions: HCC-2998
HCT-116 = test: NCI-60 SRB screen: colon cancer HCT-116; assay type: cell-based; conditions: Homo sapiens, 48 h, HCT-116
HCT-15 = test: NCI-60 SRB screen: colon cancer HCT-15; assay type: cell-based, human; conditions: HCT-15
HT29 = test: NCI-60 SRB screen: colon cancer HT29; assay type: cell-based; conditions: Homo sapiens, HT29
KM12 = test: NCI-60 SRB screen: colon cancer KM12; assay type: cell-based, human; conditions: KM12
SW-620 = test: NCI-60 SRB screen: colon cancer SW-620; assay type: cell-based; conditions: Homo sapiens, 48 h, SW-620
SF-268 = test: NCI-60 SRB screen: CNS cancer SF-268; assay type: cell-based, human; conditions: SF-268
SF-539 = test: NCI-60 SRB screen: CNS cancer SF-539; assay type: cell-based, human; conditions: SF-539
LOX IMVI = test: NCI-60 SRB screen: melanoma LOX IMVI; assay type: cell-based, human
MALME-3M = test: NCI-60 SRB screen: melanoma MALME-3M; assay type: cell-based, human; conditions: MALME-3M
MDA-MB-435 = test: NCI-60 SRB screen: melanoma MDA-MB-435; assay type: cell-based, human; conditions: MDA-MB-435
SK-MEL-2 = test: NCI-60 SRB screen: melanoma SK-MEL-2; assay type: cell-based, human; conditions: SK-MEL-2
OVCAR-8 = test: NCI-60 SRB screen: ovarian cancer OVCAR-8; assay type: cell-based, human; conditions: OVCAR-8
SK-OV-3 = test: NCI-60 SRB screen: ovarian cancer SK-OV-3; assay type: cell-based, human; conditions: SK-OV-3
786-0 = test: NCI-60 SRB screen: renal cancer 786-0; assay type: cell-based, human; conditions: 786-0
A498 = test: NCI-60 SRB screen: renal cancer A498; assay type: cell-based, human; conditions: A498
ACHN = test: NCI-60 SRB screen: renal cancer ACHN; assay type: cell-based, human
CAKI-1 = test: NCI-60 SRB screen: renal cancer CAKI-1; assay type: cell-based, human; conditions: CAKI-1
RXF 393 = test: NCI-60 SRB screen: renal cancer RXF 393; assay type: cell-based, human; conditions: RXF 393
SN12C = test: NCI-60 SRB screen: renal cancer SN12C; assay type: cell-based, human
TK-10 = test: NCI-60 SRB screen: renal cancer TK-10; assay type: cell-based, human; conditions: TK-10
UO-31 = test: NCI-60 SRB screen: renal cancer UO-31; assay type: cell-based, human; conditions: UO-31
PC-3 = test: NCI-60 SRB screen: prostate cancer PC-3; assay type: cell-based, human; conditions: PC-3
DU-145 = test: NCI-60 SRB screen: prostate cancer DU-145; assay type: cell-based, human; conditions: DU-145
MDA-MB-231/ATCC = test: NCI-60 SRB screen: breast cancer MDA-MB-231/ATCC; assay type: cell-based; conditions: Homo sapiens, 48 h
BT-549 = test: NCI-60 SRB screen: breast cancer BT-549; assay type: cell-based, human; conditions: BT-549
T-47D = test: NCI-60 SRB screen: breast cancer T-47D; assay type: cell-based, human; conditions: T-47D
[1] = tested on: 60 human tumor cell lines; conditions: single dose 10 µM
Breast cancer subpanel = test: NCI-60 screen, subpanel Breast cancer
Prostate cancer subpanel = test: NCI-60 screen, subpanel Prostate cancer
[2] = single dose 10 µM, read-out: Percentage Cell Growth
[3] = five concentrations, SRB, read-out: GI50
[4] = Homo sapiens, five concentrations, 48 h, SRB, read-out: GI50

Structure (SMILES): C=C(C)[C@@H]1CC[C@]2(C(=O)NCCCN)CC[C@]3(C)[C@H](CC[C@@H]4[C@@]5(C)CCC(=O)C(C)(C)[C@@H]5CC[C@]43C)[C@@H]12 [Compound 10]
- GI50 (K-562; Homo sapiens, K562, five concentrations, 48 h, SRB, read-out: GI50): 9.84 µM
- Percentage Cell Growth (K-562; single dose 10 µM): 1.10%
- activity at 10 µM (RPMI-8226; [2]): -6.66%
- GI50 (RPMI-8226; [3]): 17.2 µM
- Percentage Cell Growth (HOP-62; single dose 10 µM): −26.80%
- GI50 (HOP-62; [4]): 18.3 µM
- GI50 (NCI-H226; [4]): 21.2 µM
- Percentage Cell Growth (NCI-H226; single dose 10 µM): 36.64%
- GI50 (NCI-H522; [4]): 21 µM
- Percentage Cell Growth (NCI-H522; single dose 10 µM): −16.98%
- Percentage Cell Growth (COLO 205; single dose 10 µM): 7.82%
- GI50 (COLO 205; [4]): 21 µM
- Percentage Cell Growth (HCC-2998; single dose 10 µM): −23.40%
- GI50 (HCC-2998; [4]): 21.4 µM
- activity at 10 µM (HCT-116; [2]): 1.97%
- GI50 (HCT-116; [3]): 13.9 µM
- Percentage Cell Growth (HCT-15; single dose 10 µM): −22.06%
- GI50 (HCT-15; [4]): 21.7 µM
- activity at 10 µM (HT29; HT-29, 48 h, single dose 10 µM, read-out: Percentage Cell Growth): 3.9%
- GI50 (HT29; HT-29, five concentrations, 48 h, SRB, read-out: GI50): 6.95 µM
- GI50 (KM12; [4]): 17.3 µM
- Percentage Cell Growth (KM12; single dose 10 µM): −25.31%
- activity at 10 µM (SW-620; [2]): -36.2%
- GI50 (SW-620; [3]): 22.5 µM
- GI50 (SF-268; [4]): 23 µM
- Percentage Cell Growth (SF-268; single dose 10 µM): −16.88%
- GI50 (SF-539; [4]): 17.9 µM
- Percentage Cell Growth (SF-539; single dose 10 µM): −36.20%
- GI50 (LOX IMVI; [4]): 25.5 µM
- Percentage Cell Growth (LOX IMVI; single dose 10 µM): 1.37%
- GI50 (MALME-3M; [4]): 23.3 µM
- Percentage Cell Growth (MALME-3M; single dose 10 µM): −18.76%
- GI50 (MDA-MB-435; [4]): 28.7 µM
- Percentage Cell Growth (MDA-MB-435; single dose 10 µM): −32.41%
- GI50 (SK-MEL-2; [4]): 27.3 µM
- Percentage Cell Growth (SK-MEL-2; single dose 10 µM): −24.21%
- GI50 (OVCAR-8; [4]): 27.7 µM
- Percentage Cell Growth (OVCAR-8; single dose 10 µM): −3.81%
- GI50 (SK-OV-3; [4]): 17.7 µM
- Percentage Cell Growth (SK-OV-3; single dose 10 µM): −27.22%
- Percentage Cell Growth (786-0; single dose 10 µM): −22.61%
- GI50 (786-0; [4]): 23.2 µM
- Percentage Cell Growth (A498; single dose 10 µM): −44.82%
- GI50 (A498; [4]): 22.9 µM
- GI50 (ACHN; [4]): 21.7 µM
- Percentage Cell Growth (ACHN; single dose 10 µM): −49.24%
- Percentage Cell Growth (CAKI-1; single dose 10 µM): −54.52%
- GI50 (CAKI-1; [4]): 21.9 µM
- GI50 (RXF 393; [4]): 17.1 µM
- Percentage Cell Growth (RXF 393; single dose 10 µM): −42.28%
- GI50 (SN12C; [4]): 20.8 µM
- Percentage Cell Growth (SN12C; single dose 10 µM): −34.74%
- GI50 (TK-10; [4]): 23.9 µM
- Percentage Cell Growth (TK-10; single dose 10 µM): −32.23%
- GI50 (UO-31; [4]): 38.9 µM
- Percentage Cell Growth (UO-31; single dose 10 µM): −34.32%
- GI50 (PC-3; [4]): 12.6 µM
- Percentage Cell Growth (PC-3; single dose 10 µM): −53.78%
- Percentage Cell Growth (DU-145; single dose 10 µM): −100.00%
- GI50 (DU-145; [4]): 17.5 µM
- activity at 10 µM (MDA-MB-231/ATCC; MDA-MB-231/ATCC, single dose 10 µM, read-out: Percentage Cell Growth): -47.8%
- GI50 (MDA-MB-231/ATCC; MDA-MB-231, MDA-MB-31/ATCC, five concentrations, SRB, read-out: GI50): 21.1 µM
- Percentage Cell Growth (BT-549; single dose 10 µM): −2.14%
- GI50 (BT-549; [4]): 23.8 µM
- GI50 (T-47D; Homo sapiens, T47D, five concentrations, 48 h, SRB, read-out: GI50): 13.1 µM
- Percentage Cell Growth (T-47D; single dose 10 µM): −12.76%
- cancer cell lethality, range of percentage growth ([1]; cell lines with negative growth): −2.14% to −100%
- cases of cancer cell lethality ([1]; number of cell lines): 48
- MID b, average sensitivity of all cell line of particular subpanel (Breast cancer subpanel): 20.30 µM
- Selectivity, ratio MID a: MID b (Breast cancer subpanel): 1.01
- MID b, average sensitivity of all cell line of particular subpanel (Prostate cancer subpanel): 15.05 µM
- Selectivity, ratio MID a: MID b (Prostate cancer subpanel): 1.36
